Where two headings read alike, the source gives them in different places.
Experiment: Compound 1 in plasma and ocular tissue following topical administration
Type: in vivo, male hypertensive New Zealand White Rabbit
Settings: for AUC(0-t): male, New Zealand White, rabbit, topical or ocular, topical administration, 5% (2-Hydroxypropyl)-β-cyclodextrin in PBS pH 7.4, LC-MS/MS
Procedure: The goal of this study was to determine the presence/absence of Compound 1 in male hypertensive New Zealand White Rabbit plasma and ocular tissue following a topical administration. For the study, Compound 1 was formulated with 5% (2-Hydroxypropyl)-β-cyclodextrin in phosphate-buffered saline pH 7.4 at 60 μg/eye. Plasma, Cornea, Conjunctiva, Aqueous Humor (AH), and Iris Ciliary Body (ICB) samples were collected for analysis of the concentrations of Compound 1 using LC-MS/MS methods.

## CN1C(=O)c2c(nn(Cc3ccc(-c4ccccn4)cc3)c2Nc2ccccc2)N2C1=N[C@@H]1CCC[C@@H]12 [Compound 1]
60 μg/eye, aqueous humor, read-out: AUC0-24hr in the aqueous humor
  AUC(0-t): 0.866 µg·h/mL
60 μg/eye, plasma, read-out: AUC0-24hr in the plasma
  AUC(0-t): 0.0463 µg·h/mL
Ocular tissue upon topical administration, 60 μg/eye (FIG. 1)
  availability in ocular tissue: rapid availability
plasma, 1 hour after topical administration, 60 μg/eye
  presence in plasma: present
